Where two headings read alike, the source gives them in different places.
Target: T1, BRM (Homo sapiens, UniProt P51531)
T1 construct: In-Cell Western Screen of BRM Degradation in SW1573 Cells; endogenous in cells; host or cells: SW1573
Assay: In-cell Western screen of BRM degradation in SW1573 cells (Dmax and DC50)
Type: cell-based
Summary of the method: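 BRM levels were read by LI-COR in-cell Western after two-channel (800/680 nm) immunostaining of fixed, Triton-permeabilised SW1573 cells.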

[1] = BRM degradation, SW1573 cells, read-out: DC50
[2] = BRM degradation, SW1573 cells, when tested at the top concentration of between 0.3 and 10 μM, read-out: Dmax (%) (% degraded)

T1 sequence (P51531 whole entry): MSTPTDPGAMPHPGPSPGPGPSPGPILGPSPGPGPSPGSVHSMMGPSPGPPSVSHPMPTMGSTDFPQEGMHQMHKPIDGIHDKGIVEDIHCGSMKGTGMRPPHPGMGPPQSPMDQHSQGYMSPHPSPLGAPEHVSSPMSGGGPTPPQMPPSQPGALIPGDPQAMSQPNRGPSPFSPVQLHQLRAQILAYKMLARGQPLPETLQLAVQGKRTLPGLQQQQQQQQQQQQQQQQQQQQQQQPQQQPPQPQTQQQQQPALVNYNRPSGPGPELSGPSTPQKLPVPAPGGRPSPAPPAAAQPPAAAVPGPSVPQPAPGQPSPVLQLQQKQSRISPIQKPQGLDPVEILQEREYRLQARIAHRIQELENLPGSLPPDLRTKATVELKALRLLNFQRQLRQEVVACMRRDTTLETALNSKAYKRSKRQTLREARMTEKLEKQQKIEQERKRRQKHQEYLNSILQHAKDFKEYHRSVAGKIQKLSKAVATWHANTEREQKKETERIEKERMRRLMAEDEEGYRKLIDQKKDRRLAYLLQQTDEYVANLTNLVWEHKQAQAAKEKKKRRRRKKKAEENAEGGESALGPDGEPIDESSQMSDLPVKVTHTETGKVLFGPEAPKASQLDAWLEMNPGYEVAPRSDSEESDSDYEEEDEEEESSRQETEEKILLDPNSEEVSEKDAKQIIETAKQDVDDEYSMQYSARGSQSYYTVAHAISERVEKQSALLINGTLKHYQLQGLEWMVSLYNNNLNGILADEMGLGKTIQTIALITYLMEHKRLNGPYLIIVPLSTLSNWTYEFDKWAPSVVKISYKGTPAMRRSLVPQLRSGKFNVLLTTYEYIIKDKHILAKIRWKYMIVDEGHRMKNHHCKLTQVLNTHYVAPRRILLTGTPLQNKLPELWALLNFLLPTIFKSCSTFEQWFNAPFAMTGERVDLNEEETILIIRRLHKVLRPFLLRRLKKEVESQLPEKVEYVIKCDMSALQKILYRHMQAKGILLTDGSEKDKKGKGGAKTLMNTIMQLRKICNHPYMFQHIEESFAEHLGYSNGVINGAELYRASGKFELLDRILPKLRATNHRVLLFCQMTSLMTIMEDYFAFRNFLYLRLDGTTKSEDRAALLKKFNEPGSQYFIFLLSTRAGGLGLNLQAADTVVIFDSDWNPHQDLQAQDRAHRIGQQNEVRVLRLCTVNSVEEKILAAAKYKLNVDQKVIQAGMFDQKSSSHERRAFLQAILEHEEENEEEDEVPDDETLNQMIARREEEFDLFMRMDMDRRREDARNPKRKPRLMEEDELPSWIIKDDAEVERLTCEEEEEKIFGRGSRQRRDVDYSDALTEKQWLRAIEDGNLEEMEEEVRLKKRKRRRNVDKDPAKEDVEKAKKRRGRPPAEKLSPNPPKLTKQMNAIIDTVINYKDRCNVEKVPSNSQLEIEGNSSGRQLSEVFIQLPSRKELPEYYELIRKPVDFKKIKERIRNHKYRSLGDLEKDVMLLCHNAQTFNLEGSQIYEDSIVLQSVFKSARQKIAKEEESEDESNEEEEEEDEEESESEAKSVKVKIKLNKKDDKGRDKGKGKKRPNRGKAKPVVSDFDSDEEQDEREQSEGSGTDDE

Compound `Cc1ncsc1-c1ccc([C@H](C)NC(=O)[C@@H]2C[C@@H](O)CN2C(=O)[C@H](c2cc(OCCOCCOCCCCN3CC4(CCN(c5cc(-c6ccccc6O)nnc5N)CC4)C3)no2)C(C)C)cc1` [compound 71, (2S,4R)-1-((S)-2-(3-(2-(2-(4-(7-(3-amino-6-(2-hydroxyphenyl)pyridazin-4-yl)-2,7-diazaspiro[3.5]nonan-2-yl)butoxy)ethoxy)ethoxy)isoxazol-5-yl)-3-methylbutanoyl)-4-hydroxy-N-((S)-1-(4-(4-methylthiazol-5-yl)phenyl)ethyl)pyrrolidine-2-carboxamide] has a DC50 [1] greater than 0.03 µM.
`Cc1ncsc1-c1ccc([C@H](C)NC(=O)[C@@H]2C[C@@H](O)CN2C(=O)[C@@H](c2cc(N3CCC(O[C@H]4C[C@H](Oc5cc(N6C7CCC6CN(c6cc(-c8ccccc8O)nnc6N)C7)ccn5)C4)CC3)no2)C(C)C)cc1` [compound 404, (2S,4R)-1-((2R)-2-(3-(4-((1r,3R)-3-((4-(3-(3-amino-6-(2-hydroxyphenyl)pyridazin-4-yl)-3,8-diazabicyclo[3.2.1]octan-8-yl)pyridin-2-yl)oxy)cyclobutoxy)piperidin-1-yl)isoxazol-5-yl)-3-methylbutanoyl)-4-hydroxy-N-((S)-1-(4-(4-methylthiazol-5-yl)phenyl)ethyl)pyrrolidine-2-carboxamide] gave a Dmax (SW1573, % degraded, when tested at the top concentration of between 0.3 and 10 μM, read-out: BRM Dmax (%)) greater than 75% and a DC50 (degradation of BRM, read-out: BRM DC50) of less than 0.0025 µM.
With `Cc1ncsc1-c1ccc([C@H](C)NC(=O)[C@@H]2C[C@@H](O)CN2C(=O)[C@@H](c2cc(OCCOCCOCCCCN3CCC4(CC3)CCN(c3cc(-c5ccccc5O)nnc3N)CC4)no2)C(C)C)cc1` [compound 68, (2S,4R)-1-((R)-2-(3-(2-(2-(4-(9-(3-amino-6-(2-hydroxyphenyl)pyridazin-4-yl)-3,9-diazaspiro[5.5]undecan-3-yl)butoxy)ethoxy)ethoxy)isoxazol-5-yl)-3-methylbutanoyl)-4-hydroxy-N-((S)-1-(4-(4-methylthiazol-5-yl)phenyl)ethyl)pyrrolidine-2-carboxamide] the DC50 [1] was 0.0025 to 0.01 µM and the Dmax [2] was greater than 75%.
`Cc1ncsc1-c1ccc([C@H](C)NC(=O)[C@@H]2C[C@@H](O)CN2C(=O)[C@@H](c2cc(OCCN3CCC(O[C@H]4C[C@H](Oc5cc(N6C7CCC6CN(c6ccn8cc(-c9ccccc9O)nc8n6)C7)ccn5)C4)CC3)no2)C(C)C)cc1` [compound 489, (2S,4R)-4-hydroxy-1-((2R)-2-(3-(2-(4-((1r,3R)-3-((4-(3-(2-(2-hydroxyphenyl)imidazo[1,2-a]pyrimidin-7-yl)-3,8-diazabicyclo[3.2.1]octan-8-yl)pyridin-2-yl)oxy)cyclobutoxy)piperidin-1-yl)ethoxy)isoxazol-5-yl)-3-methylbutanoyl)-N-((S)-1-(4-(4-methylthiazol-5-yl)phenyl)ethyl)pyrrolidine-2-carboxamide] gave a DC50 (target protein degradation, read-out: BRM DC50) greater than 0.03 µM.
`Cc1ncsc1-c1ccc([C@H](C)NC(=O)[C@@H]2C[C@@H](O)CN2C(=O)[C@@H](c2cc(N3CCC(CN4CCC(O[C@H]5C[C@H](Oc6cc(/C=C/c7cc(-c8ccccc8O)nnc7N)ccn6)C5)CC4)CC3)no2)C(C)C)cc1` [compound 626, (2S,4R)-1-((R)-2-(3-(4-((4-((1r,3r)-3-((4-((E)-2-(3-amino-6-(2-hydroxyphenyl)pyridazin-4-yl)vinyl)pyridin-2-yl)oxy)cyclobutoxy)piperidin-1-yl)methyl)piperidin-1-yl)isoxazol-5-yl)-3-methylbutanoyl)-4-hydroxy-N-((S)-1-(4-(4-methylthiazol-5-yl)phenyl)ethyl)pyrrolidine-2-carboxamide] showed a DC50 [1] of less than 0.0025 µM and a Dmax (BRM degradation, SW1573 cells, read-out: Dmax (% degraded)) greater than 75%.
Work on `Cc1ncsc1-c1ccc([C@H](C)NC(=O)[C@@H]2C[C@@H](O)CN2C(=O)[C@@H](c2cc(N3CCC4(CC3)CC(CN3CCC(O[C@H]5C[C@H](Oc6cc(N7C8CCC7CN(c7cc(-c9ccccc9O)nnc7N)C8)ccn6)C5)CC3)C4)no2)C(C)C)cc1` [compound 650, (2S,4R)-1-((2R)-2-(3-(2-((4-((1r,3r)-3-((4-(3-(3-amino-6-(2-hydroxyphenyl)pyridazin-4-yl)-3,8-diazabicyclo[3.2.1]octan-8-yl)pyridin-2-yl)oxy)cyclobutoxy)piperidin-1-yl)methyl)-7-azaspiro[3.5]nonan-7-yl)isoxazol-5-yl)-3-methylbutanoyl)-4-hydroxy-N-((S)-1-(4-(4-methylthiazol-5-yl)phenyl)ethyl)pyrrolidine-2-carboxamide] yielded a DC50 [1] greater than 0.03 µM.
For `Cc1ncsc1-c1ccc([C@H](C)NC(=O)[C@@H]2C[C@@H](O)CN2C(=O)[C@@H](c2cc(N3CCN(CCN4CCC(O[C@H]5C[C@H](Oc6cc(N7C8CCC7CN(c7cc(-c9ccccc9O)nnc7N)C8)ccn6)C5)CC4)CC3)no2)C(C)C)cc1` [compound 144, (2S,4R)-1-((2R)-2-(3-(4-(2-(4-((1r,3r)-3-((4-(3-(3-amino-6-(2-hydroxyphenyl)pyridazin-4-yl)-3,8-diazabicyclo[3.2.1]octan-8-yl)pyridin-2-yl)oxy)cyclobutoxy)piperidin-1-yl)ethyl)piperazin-1-yl)isoxazol-5-yl)-3-methylbutanoyl)-4-hydroxy-N-((S)-1-(4-(4-methylthiazol-5-yl)phenyl)ethyl)pyrrolidine-2-carboxamide], the DC50 [1] was less than 0.0025 µM and the Dmax [2] was greater than 75%.
`Cc1ncsc1-c1ccc([C@H](CN)NC(=O)[C@@H]2C[C@@H](O)CN2C(=O)[C@H](c2cc(OCCN3CCN(CCOc4cc(N5C6CCC5CN(c5cc(-c7ccccc7O)nnc5N)C6)ccn4)CC3)no2)C(C)C)cc1` [compound 290, (2S,4R)-N-((R)-2-amino-1-(4-(4-methylthiazol-5-yl)phenyl)ethyl)-1-((2S)-2-(3-(2-(4-(2-((4-(3-(3-amino-6-(2-hydroxyphenyl)pyridazin-4-yl)-3,8-diazabicyclo[3.2.1]octan-8-yl)pyridin-2-yl)oxy)ethyl)piperazin-1-yl)ethoxy)isoxazol-5-yl)-3-methylbutanoyl)-4-hydroxypyrrolidine-2-carboxamide] showed a DC50 [1] greater than 0.03 µM.
For `CC(C)[C@H](C(=O)N1C[C@H](O)C[C@H]1C(=O)N[C@@H](C)c1ccc(-n2ccnc2N)cc1)c1cc(N2CCC(CN3CCC(O[C@H]4C[C@H](Oc5cc(N6C7CCC6CN(c6cc(-c8ccccc8O)nnc6N)C7)ccn5)C4)CC3)CC2)no1` [compound 620, (2S,4R)-N-((S)-1-(4-(2-amino-1H-imidazol-1-yl)phenyl)ethyl)-1-((2S)-2-(3-(4-((4-((1r,3r)-3-((4-(3-(3-amino-6-(2-hydroxyphenyl)pyridazin-4-yl)-3,8-diazabicyclo[3.2.1]octan-8-yl)pyridin-2-yl)oxy)cyclobutoxy)piperidin-1-yl)methyl)piperidin-1-yl)isoxazol-5-yl)-3-methylbutanoyl)-4-hydroxypyrrolidine-2-carboxamide], the DC50 (BRM degradation, SW1573 cells, Table 2D, read-out: *DC50) was greater than 0.03 µM.
